Starred links: 1 amine or outer side, 2 acyl side, 3 side chain; linkers in the order of their positions; H or OH if unused. Residues, ends and D or L forms follow the SMILES beside them. *: point of attachment. AFC = O=c1cc(C(F)(F)F)c2ccc(N*)cc2o1; Morpholide = C1CN(*)CCO1; Cbz = O=C(OCc1ccccc1)*; CO = O=C([*:1])[*:2]; CH2F = FC*
How the values were obtained:
[1] = tested on: purified Taenia solium cysteine protease; experiment: Protease inactivator inhibition assay (EC100, Ki; Step VII); assay type: biochemical
From the text: Once the protease inactivators were synthesized in the organic laboratory, they were to be tested for the lowest efficacious concentrations at which they induced 100% inhibition of the target protease (EC100). The top percent cocktail that was employed in the final vehicle selection step of Step III was employed as the source of competition for the inhibitors. In this case, this was the […] which was comprised of Z-FR-AFC, Z-FAR-AFC, Z-AP-AFC, Z-AAK-AFC, and Z-VLR-AFC. The final result would be a ranking of transition state candidate protease inactivators with a high ranking directly correlating to a low ECIoo value. The following steps describe the assay:
Step A: Initial Screening. To set up the test control, each protease inactivator was first incubated with the 5% cocktail (which provided the final differentiation of vehicles in Step III). To begin with, the protease inactivator was incubated at a concentration of 3×10^−9M in 500 μl of assay buffer (0.2 M Citrate, pH 4.9 supplemented with 10mM L-cysteine). This concentration was determined, after a series of inhibitor dilutions identified, to be the best inhibitor concentration at which a differentiation in inhibitor potential could be noted. Next, a concentration equal to 4×10^−5M for each of the individual cocktail components, was added to the mix. The components were allowed to equilibrate for a period of 30 minutes. […]
Percent inhibition was calculated as: [formula] […]
Step C: Determination ofInhibitor Ki and mode of inhibition, and re-ranking of EC100 list with inhibitor Ki. Ki of each of the top ranked protease inactivators, based upon low EC100 values, was assessed next for the top 5 EC100 inhibitors.
In order to determine Ki, all of the high Vmax cocktail substrates were employed for Ki determination (since Ki of the inhibitor for the enzyme is the same regardless of the substrate). To insure the highest accuracy, Ki was to be determined upon a minimum of at least three of the high Kcat substrates. […]

[2] = tested on: Trypsin; experiment: Differential cleavage (selectivity) test; assay type: biochemical, human; conditions: pH 8.0, Z-R-AFC
Procedure: (§1) In order to perform the assay, the vehicle (for Step VI) or inhibitor (for Step IX) were incubated with the appropriate substrate in the correct assay buffer and allowed to equilibrate. Subsequently, the protease was added, and the assay was allowed to incubate for an appropriate time. The concentrations used in this experiment were as follows: Vehicle was set up at 4×10^−5 M in final assay buffer; Inhibitor was set up at 3×10^−10 M in the final assay buffer. Accordingly, the dosages employed should be the minimal amount of vehicle or inhibitor necessary to induce inhibition. […] Substrates were set up based upon the preferred substrate for cleavage of the particular enzyme.
(§2) Positive controls were set up similarly as described for test controls, except that solvent was added in substitution for the inhibitor or vehicle (in a volume equal to the volume of inhibitor or vehicle addition). All of the inhibitors and vehicles could be dissolved in dimethylsulfoxide (DMSO), and therefore, this was the solvent of choice. Negative controls were set up by adding the inhibitor or vehicle and the preferred substrates in a tube without the protease. All potential non-proteolytic liberation of AFC was therefore controlled for in this tube (a feature which also insured stability of the AFC substrates, since these substrates will freely liberate AFC when unstable).
(§3) All controls were set up in triplicate, and experiments were repeated a minimum of five times.
(§4) Percent inhibition was calculated as: [formula]
(§5) In this preliminary test, we employed the following human-derived enzymes (with indicated mechanistic class): Cathepsin B (cysteine), Cathepsin L (cysteine), Cathepsin H (cysteine), Cathepsin D (aspartic) Trypsin (serine), the purified Taenia solium cysteine protease, and the Taenia solium crude mix. Cathepsin B was prepared in an assay buffer of 10 mM L-cysteine in 0.4 M Citrate buffer, pH 6. 1, using Z-ARR-AFC as the cleavage substrate. Cathepsin L was prepared in an assay buffer of 10 mM L-cysteine in 0.4 M Citrate buffer, pH 5.5, using Z-FR-AFC as the cleavage substrate. Cathepsin H was prepared in an assay buffer of 10 mM L-cysteine in 0.15 M PBS buffer, pH 6.8, using L- R-AFC as the cleavage substrate. Cathepsin D was prepared in an assay buffer of 0.15 M PBS, pH 7.1, using Z-RGFFP-AFC as the cleavage substrate. Trypsin was prepared in an assay buffer of 0.15 M PBS, pH 8.0, supplemented with 100 mM CaCl2 and with Z-R-AFC as the cleavage substrate. Enzyme was incubated so that it was at least 50 times less than the concentration of substrate in order to insure saturating conditions.

[3] = biological target: T1, Cathepsin H (Homo sapiens, UniProt P09668); experiment: Differential cleavage (selectivity) test; assay type: biochemical; conditions: pH 6.8, L-R-AFC
T1 sequence (P09668 98-335): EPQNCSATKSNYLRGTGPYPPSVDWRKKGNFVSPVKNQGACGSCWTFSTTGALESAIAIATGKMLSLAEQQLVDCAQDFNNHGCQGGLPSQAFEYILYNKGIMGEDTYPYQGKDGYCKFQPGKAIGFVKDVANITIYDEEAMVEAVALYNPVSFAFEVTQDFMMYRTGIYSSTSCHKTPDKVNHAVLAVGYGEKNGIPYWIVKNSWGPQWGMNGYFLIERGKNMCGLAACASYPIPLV
Procedure: as §1, §2, §3, §4, §5

[4] = biological target: Cathepsin D (Homo sapiens, UniProt P07339); experiment: Differential cleavage (selectivity) test; assay type: biochemical; conditions: pH 7.1, Z-RGFFP-AFC
Procedure: as §1, §2, §3, §4, §5

[5] = biological target: Cathepsin B (Homo sapiens, UniProt P07858); experiment: Differential cleavage (selectivity) test; assay type: biochemical; conditions: pH 6.1, Z-ARR-AFC
Procedure: as §1, §2, §3, §4, §5

Sequence of Cathepsin D (P07339 65-412): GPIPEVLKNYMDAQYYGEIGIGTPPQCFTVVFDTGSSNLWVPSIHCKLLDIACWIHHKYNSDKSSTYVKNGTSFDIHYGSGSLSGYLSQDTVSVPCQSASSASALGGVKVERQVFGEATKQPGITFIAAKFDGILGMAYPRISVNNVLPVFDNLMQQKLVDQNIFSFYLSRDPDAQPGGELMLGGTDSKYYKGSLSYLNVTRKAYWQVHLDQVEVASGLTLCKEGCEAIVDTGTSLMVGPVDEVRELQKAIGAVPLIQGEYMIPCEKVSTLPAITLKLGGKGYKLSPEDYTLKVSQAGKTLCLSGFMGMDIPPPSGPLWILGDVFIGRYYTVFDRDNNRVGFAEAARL

`CC(C)C[C@H](NC(=O)OCc1ccccc1)C(=O)N[C@@H](CC(C)C)C(=O)N[C@@H](Cc1ccc(O)cc1)C(=O)CF` [Z-LLY-FMK, Z-Leu-Leu-Tyr-FMK] (Cbz-Leu-Leu-Tyr-CH2F) was tested, and the “ranking of protease inactivators by inhibition / EC100” value [1] was “top inhibitors”, the “Percent inhibition of Trypsin (serine)” value ([2]; inhibitor 3×10^−10 M) was 0% and the “Percent inhibition of Cathepsin H (cysteine)” value ([3]; inhibitor 3×10^−10 M) was 0%. For the same compound, the “Percent inhibition of Cathepsin D (aspartic)” value ([4]; inhibitor 3×10^−10 M) was 0% and the “Percent inhibition of Cathepsin B (cysteine)” value ([5]; inhibitor 3×10^−10 M) was 0%.
In the case of `CC(C)C[C@H](NC(=O)N1CCOCC1)C(=O)N[C@@H](Cc1ccc(O)cc1)C(=O)Nc1ccc2c(C(F)(F)F)cc(=O)oc2c1` [Mu-LY-AFC, Mu-Leu-Tyr-AFC] ({Morpholide-CO}-Leu-Tyr-{AFC}), the “Percent inhibition of Trypsin (serine)” value ([2]; vehicle 4×10^−5 M) was 0%, the “Percent inhibition of Cathepsin H (cysteine)” value ([3]; vehicle 4×10^−5 M) was 0% and the “Percent inhibition of Cathepsin D (aspartic)” value ([4]; vehicle 4×10^−5 M) was 0%. For the same compound, the “Percent inhibition of Cathepsin B (cysteine)” value ([5]; vehicle 4×10^−5 M) was 0%.
In the case of `CC(C)C[C@H](NC(=O)[C@H](CC(C)C)NC(=O)[C@H](CC(C)C)NC(=O)OCc1ccccc1)C(=O)CF` [Z-LLL-FMK, Z-Leu-Leu-Leu-fluoromethylketone] (Cbz-Leu-Leu-Leu-CH2F), the “ranking of protease inactivators by inhibition / EC100” value [1] was “top inhibitors”, the “Percent inhibition of Trypsin (serine)” value ([2]; inhibitor 3×10^−10 M) was 0% and the “Percent inhibition of Cathepsin H (cysteine)” value ([3]; inhibitor 3×10^−10 M) was 0%. The “Percent inhibition of Cathepsin D (aspartic)” value ([4]; inhibitor 3×10^−10 M) was 0% and the “Percent inhibition of Cathepsin B (cysteine)” value ([5]; inhibitor 3×10^−10 M) was 0%.

— patent publication US20030077653A1, “Method for the identification of active site protease inactivators” (The University of Georgia Research Foundation, Inc., priority 2000, published 2003)
